ChEMBL document CHEMBL1201862, “PubChem BioAssay data set” (2004)
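How tested: cells in 96-well plates exposed to compound for 48 hours at five concentrations. Here, GI50 denotes the concentration required for 50% inhibition of growth.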 Active and inactive are the calls of the source. Cut-off read from the data, not from the text of the source: active = GI50 up to about 1.1 µM and inactive = higher.

Columns and labels:
Assay in all cases: growth of human tumour cells (NCI), 48 h
SNB-19 = system: SNB-19
UACC-257 = system: UACC-257
KM12 = system: KM12
HCT-15 = system: HCT-15
U-251 = system: U-251
SK-MEL-28 = system: SK-MEL-28
OVCAR-5 = system: OVCAR-5
EKVX = system: EKVX
HCT-116 = system: HCT-116
SF-268 = system: SF-268
NCI-H23 = system: NCI-H23
CCRF-CEM = system: CCRF-CEM
RPMI-8226 = system: RPMI-8226
HT-29 = system: HT-29
HCC 2998 = system: HCC 2998
SN12C = system: SN12C
SF-295 = system: SF-295
A549 = system: A549
SK-MEL-2 = system: SK-MEL-2
UO-31 = system: UO-31

Measured: GI50

CC1C[C@]2(C[C@@H](C)C(=O)O2)OC2CC3(C)C4CCC5C(C)(C)OC(=O)CC[C@@]56C[C@@]46CC[C@]3(C)C12 (some centres undefined)
> 100 µM: HCT-15
inactive: SNB-19 > 100 µM | UACC-257 > 100 µM | KM12 > 100 µM | U-251 > 100 µM | SK-MEL-28 > 100 µM | OVCAR-5 > 100 µM | EKVX > 100 µM | HCT-116 > 100 µM | SF-268 > 100 µM | NCI-H23 > 100 µM | CCRF-CEM > 100 µM | RPMI-8226 > 100 µM | HT-29 > 100 µM | HCC 2998 > 100 µM | SN12C > 100 µM | SF-295 > 100 µM | A549 > 100 µM | SK-MEL-2 > 100 µM

O=P1(N2CCOCC2)OCCO1
> 100 µM: HCT-15
inactive: SNB-19 > 100 µM | UACC-257 > 100 µM | KM12 > 100 µM | U-251 > 100 µM | SK-MEL-28 > 100 µM | OVCAR-5 > 100 µM | EKVX > 100 µM | HCT-116 > 100 µM | SF-268 > 100 µM | NCI-H23 > 100 µM | CCRF-CEM > 100 µM | RPMI-8226 > 100 µM | HT-29 > 100 µM | HCC 2998 > 100 µM | SN12C > 100 µM | UO-31 > 100 µM | SF-295 > 100 µM | A549 > 100 µM

CCSc1nc(N)c2c(-c3ccc(OC)c(OC)c3)c3c(nc2n1)CCCC3
inactive: SNB-19 > 100 µM | UACC-257 > 100 µM | KM12 > 100 µM | U-251 > 100 µM | SK-MEL-28 > 100 µM | OVCAR-5 > 100 µM | EKVX > 100 µM | HCT-116 > 100 µM | SF-268 > 100 µM | NCI-H23 > 100 µM | CCRF-CEM > 100 µM | RPMI-8226 > 100 µM | HT-29 > 100 µM | SN12C > 100 µM | UO-31 > 100 µM | SF-295 > 100 µM | A549 > 100 µM
> 100 µM: HCT-15

COC(=O)C1CCC(=O)N1/C(C)=N/NC(=O)Nc1ccc(Cl)c(Cl)c1 (centres undefined)
14.4 µM: HCT-15
inactive: SNB-19 > 100 µM | UACC-257 > 100 µM | KM12 98.4 µM | U-251 > 100 µM | SK-MEL-28 > 100 µM | EKVX > 100 µM | HCT-116 > 100 µM | SF-268 69.5 µM | NCI-H23 > 100 µM | CCRF-CEM > 100 µM | RPMI-8226 > 100 µM | HCC 2998 > 100 µM | SN12C > 100 µM | UO-31 > 100 µM | SF-295 > 100 µM | A549 > 100 µM | SK-MEL-2 > 100 µM

CCOC(=O)c1c(-c2ccccc2)c(C)cn1C
inactive: SNB-19 > 10 µM | UACC-257 > 10 µM | KM12 > 10 µM | U-251 > 10 µM | OVCAR-5 > 10 µM | EKVX > 10 µM | HCT-116 > 10 µM | SF-268 > 10 µM | NCI-H23 > 10 µM | CCRF-CEM > 10 µM | HT-29 > 10 µM | SN12C 3.73 µM | UO-31 > 10 µM | SF-295 > 10 µM | A549 > 10 µM | SK-MEL-2 > 10 µM
> 10 µM: HCT-15

COP(=O)(OC)[C@H](O)[C@H]1C[C@@H]1c1ccccc1
> 100 µM: HCT-15
inactive: SNB-19 > 100 µM | UACC-257 > 100 µM | KM12 > 100 µM | U-251 > 100 µM | SK-MEL-28 > 100 µM | OVCAR-5 > 100 µM | EKVX > 100 µM | SF-268 > 100 µM | NCI-H23 > 100 µM | RPMI-8226 > 100 µM | HT-29 > 100 µM | HCC 2998 > 100 µM | UO-31 > 100 µM | SF-295 > 100 µM | A549 > 100 µM | SK-MEL-2 > 100 µM

O=C1C2Cc3ccccc3CN2C(=O)N1CN1CCCCC1 (centres undefined)
inactive: SNB-19 > 100 µM | KM12 > 100 µM | U-251 > 100 µM | SK-MEL-28 > 100 µM | OVCAR-5 > 100 µM | SF-268 > 100 µM | NCI-H23 > 100 µM | CCRF-CEM 43.4 µM | RPMI-8226 31.1 µM | HCC 2998 > 100 µM | SN12C > 100 µM | UO-31 > 100 µM | SF-295 > 100 µM | A549 > 100 µM | SK-MEL-2 > 100 µM
43.6 µM: HCT-15

Cc1c(OCc2ccccc2)c(=O)ccn1CCc1c[nH]c2ccccc12
74.8 µM: HCT-15
inactive: SNB-19 32.7 µM | UACC-257 73.8 µM | KM12 33.7 µM | U-251 29.6 µM | OVCAR-5 65.9 µM | EKVX 41.3 µM | HCT-116 38.3 µM | SF-268 19.2 µM | NCI-H23 37.6 µM | CCRF-CEM 40.7 µM | RPMI-8226 31.9 µM | HT-29 23.3 µM | SN12C 45.6 µM | UO-31 43.1 µM | SF-295 56.4 µM | A549 36.6 µM | SK-MEL-2 19 µM

COC(=O)C1=COC2OC3/C(=C\c4ccc(O)c(OC)c4)C(=O)OC34C=CC1C24 (centres undefined)
14.6 µM: HCT-15
inactive: SNB-19 19.6 µM | UACC-257 15.9 µM | KM12 13.8 µM | U-251 15.2 µM | SK-MEL-28 18.6 µM | OVCAR-5 18.3 µM | HCT-116 19 µM | SF-268 19.5 µM | NCI-H23 17.7 µM | CCRF-CEM 23.2 µM | RPMI-8226 26.1 µM | HT-29 19.2 µM | HCC 2998 10.8 µM | SN12C 17.8 µM | UO-31 14.4 µM | SF-295 17.2 µM | A549 17.1 µM | SK-MEL-2 11.3 µM

CCOC(=O)/C(C(=O)Nc1ccc(Cl)cc1)=C(/N)N1CCCC1
inactive: SNB-19 > 100 µM | UACC-257 > 100 µM | KM12 > 100 µM | U-251 > 100 µM | SK-MEL-28 > 100 µM | OVCAR-5 > 100 µM | EKVX > 100 µM | HCT-116 94 µM | SF-268 > 100 µM | NCI-H23 > 100 µM | CCRF-CEM > 100 µM | RPMI-8226 97.9 µM | HT-29 > 100 µM | HCC 2998 > 100 µM | SN12C > 100 µM | SF-295 > 100 µM | A549 > 100 µM | SK-MEL-2 49.3 µM
> 100 µM: HCT-15

COC(=O)C1(c2ccc(N(C)C)cc2OC)CCCN(C(=O)Oc2ccccc2[N+](=O)[O-])CCc2c1[nH]c1ccccc21 (centres undefined)
inactive: UACC-257 > 100 µM | KM12 > 100 µM | U-251 > 100 µM | SK-MEL-28 > 100 µM | OVCAR-5 > 100 µM | EKVX > 100 µM | HCT-116 > 100 µM | SF-268 > 100 µM | NCI-H23 > 100 µM | HT-29 > 100 µM | HCC 2998 > 100 µM | SN12C > 100 µM | UO-31 51.4 µM | SF-295 > 100 µM | A549 > 100 µM | SK-MEL-2 > 100 µM

CN(CCCCCl)P(=O)(OCC1=CC(=O)c2ccccc2C1=O)OC[C@H]1O[C@@H](n2cc(F)c(=O)[nH]c2=O)C[C@@H]1O (some centres undefined)
3.66 µM: HCT-15
inactive: UACC-257 6.17 µM | KM12 3.64 µM | SK-MEL-28 4.11 µM | OVCAR-5 4.38 µM | EKVX 3.18 µM | SK-MEL-2 8.09 µM
active: HCT-116 0.0693 µM | SF-268 < 0.01 µM | NCI-H23 0.0532 µM | CCRF-CEM < 0.01 µM | HCC 2998 < 0.01 µM | SN12C < 0.0323 µM | UO-31 < 0.01 µM | SF-295 < 0.0175 µM | A549 < 0.01 µM

CCCCOP1(=O)C=CC(Cl)=C(C)C1 (centres undefined)
inactive: SNB-19 51.9 µM | UACC-257 > 10 µM | KM12 21.5 µM | U-251 > 10 µM | SK-MEL-28 16.3 µM | EKVX 70.3 µM | HCT-116 21.2 µM | SF-268 28.1 µM | NCI-H23 > 10 µM | CCRF-CEM 4.11 µM | RPMI-8226 22.3 µM | HT-29 22 µM | HCC 2998 > 10 µM | SN12C 20 µM | UO-31 41.8 µM | SF-295 18.2 µM | A549 > 100 µM | SK-MEL-2 12.4 µM
13.1 µM: HCT-15

CCCNC(/C=C/[Si](C)(C)C)CO.CCCNCC(O)/C=C/[Si](C)(C)C (centres undefined)
> 100 µM: HCT-15
inactive: SNB-19 > 100 µM | UACC-257 > 100 µM | KM12 > 100 µM | U-251 > 100 µM | SK-MEL-28 > 100 µM | OVCAR-5 > 100 µM | EKVX > 100 µM | HCT-116 > 100 µM | NCI-H23 > 100 µM | CCRF-CEM > 100 µM | RPMI-8226 90.8 µM | HT-29 > 100 µM | HCC 2998 > 100 µM | SN12C > 100 µM | UO-31 > 100 µM | SF-295 > 100 µM | A549 > 100 µM | SK-MEL-2 > 100 µM

Cc1ccc2c(O)cc(-c3cc(C)sc3C)nc2n1
inactive: SNB-19 3.66 µM | UACC-257 > 37.7 µM | KM12 3.3 µM | U-251 3.69 µM | SK-MEL-28 5.53 µM | OVCAR-5 11.6 µM | EKVX 10.8 µM | HCT-116 3.84 µM | SF-268 6.04 µM | NCI-H23 2.25 µM | CCRF-CEM 2.53 µM | RPMI-8226 2.37 µM | HT-29 4.82 µM | HCC 2998 4.05 µM | SN12C 6.44 µM | UO-31 4.29 µM | SF-295 1.94 µM | A549 3.94 µM
1.46 µM: HCT-15
